In one test the test system is platelet aggregation. The settings on record: in vitro; cited from earlier work.
For test [1] the following is noted: hypertensive patients; cited from earlier work.
Another test relates to D-dimer. Nature of the test: D-dimer level in blood of hypertensive patients treated with quercetin. It counts as in vivo, humans. The text has this: As mentioned above, PDI plays a critical role in the initiation of the coagulation cascade. By blocking this critical enzyme activity, quercetin can prevent thrombus formation. The antithrombotic activity of quercetin can be evaluated in humans by measuring D-dimer levels in plasma samples from patients treated with quercetin. D-dimer, a small protein fragment present in the blood, is a fibrin degradation product. The level of D-dimer in the blood increases after a thrombotic event due to its release from blood clots via fibrinolysis. […] Hypertensive patients are prone to thrombotic events.

For `O=c1c(O)c(-c2ccc(O)c(O)c2)oc2cc(O)cc(O)c12` [Quercetin, quercetin], the platelet aggregation entry with platelet aggregation was “inhibit platelet aggregation”. The blood pressure entry in test [1] was “reduce blood pressure”. The “level of D-dimer in blood” value in the test with D-dimer is “reduction in the level of D-dimer”.
